Legend:
[1] = target: T1, recombinant human autotaxin (Homo sapiens, UniProt Q13822); assay: Inhibition of Autotaxin as Measured by Choline Release; format: biochemical; settings: substrate LPC 16:0 30 μM, 37° C., 1 hour; arithmetic mean
T1 construct: full length human autotaxin with a C-terminal His tag transfected into 293E cells; His tag (C); made in house; host or cells: 293E cells
Description: The purpose of this assay is to detect autotaxin inhibition using a choline release assay.
Test compounds (10 mM stocks in 100% DMSO) are serially diluted in 100% DMSO resulting in 10 concentrations of 100× inhibitor in half area 96 well plates (Corning 3992). Each of these 10 wells in 100% DMSO is diluted 1:33.33 in assay buffer in round bottom 96 well plates (Fisher 12565502) resulting in 3× concentrations in well containing 3% DMSO. The assay buffer is 50 mM Tris pH8.0, 5 mM KCl, 1 mM CaCl2, 1 mM MgCl2, 0.01% TRITON™ X-100 (Sigma T9284) and 0.01% fatty acid free bovine serum albumin (Sigma A8806). A 20 μl aliquot of each 3× test compound is then added to black flat bottom 96 well plates (Corning 3991) in singlicate. A 20 μl aliquot per well of 3× recombinant human autotaxin (full length human autotaxin with a C-terminal His tag transfected into 293E cells and purified via nickel chelate and size exclusion chromatography) is then added to every well except for the no enzyme control wells. […] The resorufin on the plates is measured with a SpectraMax Gemini EM fluorometer at excitation-emission wavelengths of 530-590 nm using SoftMax Pro 4.8 software. IC50s are calculated using 4 parameter curve fits with the internal Lilly software OLO curve fitting tool. Results are expressed as the arithmetic mean +/− standard deviation; n=x.

endogenous autotaxin = target: T2, endogenous autotaxin (Homo sapiens, UniProt Q13822); assay: Reduction of LPA in the Presence of Human Plasma; format: biochemical; settings: 90% pooled human plasma, 3 hours at 37° C., total LPA by mass spec; arithmetic mean
T2 construct: The increased endogenous LPC levels are cleaved by endogenous autotaxin; tissue Lampire Biologicals; host or cells: pooled human plasma (healthy female donors, sodium heparin)
From the text: The following assay is intended to measure the reduction of LPA. This assay is a tool that can be used to identify selective autotaxin-mediated LPA inhibitor compounds when it is used to test compounds that have been identified as autotaxin inhibitors. LPA biosynthesis through autotaxin is believed to the source of LPA for LPA1 mediated neuropathic pain. Makoto Inoue, et. al, “Autotaxin, a synthetic enzyme of lysophosphatidic acid (LPA), mediates the induction of nerve-injured neuropathic pain”, Molecular Pain, 2008, 4:6. Targeted inhibition of the autotaxin mediated LPA biosynthesis is supported by the results of this assay.
Units of plasma from healthy human female donors collected in sodium heparin (Lampire Biologicals) are pooled, aliquoted and stored at −80° C. […] A 400 μl aliquot of extraction buffer (50% methanol, 49.9% acetonitrile, 0.1% acetic acid) containing LPA internal standards (50 ng/ml D5 deuterium LPA 16:0 and 50 ng/ml D5 deuterium LPA 18:0) is added to each well and the total LPA in each sample is determined by mass spec analysis. Percent reduction of LPA is calculated according to the following formula: 100−(3 hour plasma+test compound−0 hour plasma no test compound control)/(3 hour plasma no test compound control−0 hour plasma no test compound control)×100
IC50 values are calculated using 4 parameter curve fitting. […]

Row | Structure (SMILES) | IC50 [1] [nM] | IC50 (endogenous autotaxin) [nM]
1 | O=C(OCC1Cn2ccnc2CO1)N1Cc2cnc(NC3Cc4ccccc4C3)nc2C1 (single isomer, unassigned; isomer 2) [Example 8, 5,6-dihydro-8H-imidazo[2,1-c][1,4]oxazin-6-ylmethyl 2-(2,3-dihydro-1H-inden-2-ylamino)-5,7-dihydro-6H-pyrrolo[3,4-d]pyrimidine-6-carboxylate isomer 2] | 2.04 | 12.9
2 | O=C(OCC1CCc2nccn2C1)N1Cc2cnc(NC3Cc4ccccc4C3)nc2C1 (single isomer, unassigned; isomer 2) [Example 3, 5,6,7,8-tetrahydroimidazo[1,2-a]pyridin-6-ylmethyl 2-(2,3-dihydro-1H-inden-2-ylamino)-5,7-dihydro-6H-pyrrolo[3,4-d]pyrimidine-6-carboxylate isomer 2] | < 1.7 | 2.22

— US9394317B2, “Imidazo pyridine compounds” (Eli Lilly and Company, priority 2013, dated 2016)
